# From patent US20150336889A1, “INDOLE DERIVATIVES, PHARMACEUTICAL COMPOSITIONS CONTAINING SUCH INDOLES AND THEIR USE AS DNA METHYLATION MODULATORS” (IKERCHEM, S.L., priority 2012, published 2015)
# What was measured:
# Type in all cases: cell-based
# NCI-H1650 = experiment: Cancer cell growth inhibition, NCI-H1650; conditions: Homo sapiens; Lung, NCI-H1650, cell viability, 72 h
# Protocol: (§1) Cell culture-based assays were used to evaluate the ability of compounds of the invention to inhibit cancer cell growth inhibition.
# (§2) Cells were obtained from the American Type Culture Collection (ATCC) and European Collection of Cell Cultures (ECACC).
# (§3) Cells were thawed in their appropriate media plus supplements (see table below). Cells were passaged at confluence by washing once in HBSS cation-free followed by a 3 minutes incubation with trypsin ([0.5 μg/ml]/EDTA [0.2 μg/ml]) (Gibco-BRL, 15400054) solution in HBSS at 37° C. (except non-adherent cell lines), and transferred to their appropriate media plus supplements. Prior to seeding at defined cell concentration, cells were recovered in medium, centrifuged and taken up in medium, and counted.
# (§4) Cells were plated at 3000/5000/10000 cells/well in 100 μl media in tissue culture 96 well plates (Cultek). After 24 h, media was supplemented by 100 μl/well of diluted IPDNs at 100 μM.
# (§5) The Hexosaminidase assay was used for the adherent cell lines, whereas the AlamarBlue® assay was used for the non-adherent cell lines.
# (§6) Dose-response curves were generated by serial dilutions (1:1) of the compounds. […] Reagent blanks, containing media plus colorimetric reagent without cells were run on each plate. Blank values were subtracted from test values and were routinely 5-10% of uninhibited control values. Plates were incubated 72 h, and living cell number was determined by AlamarBlue® and Hexosaminidase test. The advantages of using those assays are that both can be done in the same microwell plate. AlamarBlue® assay: plates were incubated 72 h and living cell number was determined by AlamarBlue (Biosource DAL1100). After 4 h incubation at 37° C., relative fluorescent intensity, which correlates with the number of living cells, was read in a Cytofluor plate reader (Millipore) at 535/590 nm (Excitation/emission). The hexosaminidase activity was measured according to the following protocol: the media was removed and cells were washed once with PBS. […]
# MDA-MB-468 = experiment: Cancer cell growth inhibition, MDA-MB-468; conditions: Homo sapiens; Breast, MDA-MB-468, cell viability, 72 h
# Protocol: as §1, §2, §3, §4, §5, §6
# Daoy = experiment: Cancer cell growth inhibition, Daoy; conditions: Homo sapiens, Brain, cell viability, 72 h
# Protocol: as §1, §2, §3, §4, §5
# (§7) Dose-response curves were generated by serial dilutions (1:1) of the compounds. […] Reagent blanks, containing media plus colorimetric reagent without cells were run on each plate. Blank values were subtracted from test values and were routinely 5-10% of uninhibited control values. Plates were incubated 72 h, and living cell number was determined by AlamarBlue® and Hexosaminidase test. The advantages of using those assays are that both can be done in the same microwell plate. AlamarBlue® assay: plates were incubated 72 h and living cell number was determined by AlamarBlue (Biosource DAL1100). After 4 h incubation at 37° C., relative fluorescent intensity, which correlates with the number of living cells, was read in a Cytofluor plate reader (Millipore) at 535/590 nm (Excitation/emission). The hexosaminidase activity was measured according to the following protocol: the media was removed and cells were washed once with PBS.
# (§8) Data analysis was done by calculating the percentage of cell viability normalized in front of negative control values, which were considered as a 100%. The curve was adjusted using a sigmoidal dose-response (variable slope) equation and EC50 values were obtained from the equation
# (§9) where, X is the logarithm of concentration. Y is the response. Bottom is the Y value at the bottom plateau Top is the Y value at the top plateau LogEC50 is the X value when the response is halfway between Bottom and Top. With different kinds of variables, this variable is sometimes called ED50 (effective dose, 50%), or IC50 (inhibitory concentration, 50%, used when the curve goes downhill).
# NCI-H1975 = experiment: Cancer cell growth inhibition, NCI-H1975; conditions: Homo sapiens; Lung, NCI-H1975, cell viability, 72 h
# Protocol: as §1, §2, §3, §4, §5, §7, §8, §9
# MDA-MB-231 = experiment: Cancer cell growth inhibition, MDA-MB-231; conditions: Homo sapiens; Breast, MDA-MB-231, cell viability, 72 h
# Protocol: as §1, §2
# as §3, with “counted. […]” for “counted.”
# (§10) Dose-response curves were generated by serial dilutions (1:1) of the compounds. […] Plates were incubated 72 h, and living cell number was determined by AlamarBlue® and Hexosaminidase test. […] AlamarBlue® assay: plates were incubated 72 h and living cell number was determined by AlamarBlue (Biosource DAL1100). After 4 h incubation at 37° C., relative fluorescent intensity, which correlates with the number of living cells, was read in a Cytofluor plate reader (Millipore) at 535/590 nm (Excitation/emission). The hexosaminidase activity was measured according to the following protocol: the media was removed and cells were washed once with PBS. […]
# HeLa = experiment: Cancer cell growth inhibition, HeLa; conditions: Homo sapiens, Cervical, cell viability, 72 h
# Protocol: as §1, §2, §3, §4, §5, §6
# U-373MG = experiment: Cancer cell growth inhibition, U-373MG; conditions: Homo sapiens, U373 MG, Brain, cell viability, 72 h
# Protocol: as §1, §2, §3, §4, §5, §6
# SW-480 = experiment: Cancer cell growth inhibition, SW-480; conditions: Homo sapiens, SW480; Colorectal, SW-480, cell viability, 72 h
# Protocol: as §1, §2
# as §3, with “counted. […]” for “counted.”
# as §10
# HT-29 = experiment: Cancer cell growth inhibition, HT-29; conditions: Homo sapiens; Colorectal, HT-29, cell viability, 72 h
# Protocol: as §1, §2, §3, §4, §5, §6
# NCI-H358 = experiment: Cancer cell growth inhibition, NCI-H358; conditions: Homo sapiens; Lung, NCI-H358, cell viability, 72 h
# Protocol: as §1, §2, §3, §4, §5, §7, §8, §9
# U-87MG = experiment: Cancer cell growth inhibition, U-87MG; conditions: Homo sapiens, Brain, cell viability, 72 h
# Protocol: as §1, §2, §3, §4, §5, §7, §8, §9
# LoVo = experiment: Cancer cell growth inhibition, LoVo; conditions: Homo sapiens, Colorectal, cell viability, 72 h
# Protocol: as §1, §2, §3, §4, §5, §6
# RCC-7860 = experiment: Cancer cell growth inhibition, RCC-7860; conditions: Renal, RCC-7860, cell viability, 72 h
# Protocol: as §1, §2
# as §3, with “counted. […]” for “counted.”
# as §10
# SK-OV-3 = experiment: Cancer cell growth inhibition, SK-OV-3; conditions: Homo sapiens; Ovarian, SK-OV-3, cell viability, 72 h
# Protocol: as §1, §2, §3, §4, §5, §6
# SK-MEL-28 = experiment: Cancer cell growth inhibition, SK-MEL-28; conditions: Homo sapiens; Melanoma, SK-MEL-28, cell viability, 72 h
# Protocol: as §1, §2, §3, §4, §5, §6
# SK-HEP-1 = experiment: Cancer cell growth inhibition, SK-HEP-1; conditions: Homo sapiens, SK-HEP1; Liver, SK-HEP-1, cell viability, 72 h
# Protocol: as §1, §2, §3, §4, §5, §6
# LnCaP = experiment: Cancer cell growth inhibition, LnCaP; conditions: Homo sapiens, Prostate, cell viability, 72 h
# Protocol: as §1, §2, §3, §4, §5, §7, §8, §9
# Panc-1 = experiment: Cancer cell growth inhibition, Panc-1; conditions: Homo sapiens; Pancreatic, Panc-1, cell viability, 72 h
# Protocol: as §1, §2, §3, §4, §5, §7, §8, §9
# BT474 = experiment: Cancer cell growth inhibition, BT474; conditions: Homo sapiens, BT-474; Breast, BT474, cell viability, 72 h
# Protocol: as §1, §2
# as §3, with “counted. […]” for “counted.”
# as §10
# RPMI-8226 = experiment: Cancer cell growth inhibition, RPMI-8226; conditions: Homo sapiens; Multiple Myelome, RPMI-8226, cell viability, 72 h
# Protocol: as §1, §2, §3, §4, §5, §7, §8, §9
# LS174T = experiment: Cancer cell growth inhibition, LS174T; conditions: Homo sapiens, Colorectal, cell viability, 72 h
# Protocol: as §1, §2
# as §3, with “counted. […]” for “counted.”
# as §10
Compound,EC50 (NCI-H1650) [µM],EC50 (MDA-MB-468) [µM],EC50 (Daoy) [µM],EC50 (HeLa) [µM],EC50 (HT-29) [µM],EC50 (NCI-H358) [µM],EC50 (U-87MG) [µM],EC50 (LoVo) [µM],EC50 (SK-OV-3) [µM],EC50 (SK-MEL-28) [µM],EC50 (SK-HEP-1) [µM],EC50 (LnCaP) [µM],EC50 (RPMI-8226) [µM],further results
"COc1cc(OC)c2c(-c3ccc(O)cc3)cn(CC(=O)c3ccc(O)cc3)c2c1 [Example 6, 1-(4-hydroxyphenyl)-2-[3-(4-hydroxyphenyl)-4,6-dimethoxy-1H-indol-1-yl]ethanone]",11,6.1,4.2,6.9,11,7.3,13,12,4.1,4.8,31,4.8,6.4,EC50 (NCI-H1975): 9.2 µM; EC50 (MDA-MB-231): 13 µM; EC50 (U-373MG): 8.1 µM; EC50 (SW-480): 94 µM; EC50 (RCC-7860): 12 µM; EC50 (Panc-1): 15 µM; EC50 (BT474): 50 µM
"O=C(Cn1cc(-c2ccc(O)cc2)c2c(F)cc(F)cc21)c1ccc(O)cc1 [Example 16, 2-[4,6-difluoro-3-(4-hydroxyphenyl)-1H-indol-1-yl]-1-(4-hydroxyphenyl) ethanone]",76,74,50,68,66,23,95,50,44,59,35,43,65,EC50 (LS174T): 88 µM
